Assay results: US20110117017A1, “PEPTIDES WITH PROPERTIES OF AN […] FOR THE ALPHA 1A […] RECEPTOR AND USES THEREOF” (priority 2006, published 2011)

Legend:
[1] = molecular target: T1, alpha1a adrenergic receptor (Homo sapiens, UniProt P35348)
T1 sequence (P35348 1-466): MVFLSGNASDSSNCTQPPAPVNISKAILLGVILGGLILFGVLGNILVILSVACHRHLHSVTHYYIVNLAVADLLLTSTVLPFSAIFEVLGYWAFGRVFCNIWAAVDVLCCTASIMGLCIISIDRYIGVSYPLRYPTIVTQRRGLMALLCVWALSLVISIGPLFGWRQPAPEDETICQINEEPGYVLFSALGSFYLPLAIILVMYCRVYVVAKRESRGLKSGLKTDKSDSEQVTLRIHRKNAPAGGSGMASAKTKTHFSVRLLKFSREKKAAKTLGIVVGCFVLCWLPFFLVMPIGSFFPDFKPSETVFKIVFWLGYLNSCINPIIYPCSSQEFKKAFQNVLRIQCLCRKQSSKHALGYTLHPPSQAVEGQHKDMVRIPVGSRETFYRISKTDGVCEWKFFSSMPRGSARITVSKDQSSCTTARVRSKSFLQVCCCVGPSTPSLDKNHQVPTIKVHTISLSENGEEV

[2] = molecular target: T1, alpha1a adrenergic receptor; test: hot saturation of 125I-AdTx1 on yeast membranes expressing the alpha1a adrenergic receptor
Experimental: The analysis of the saturation of the alpha1a adrenergic receptor with AdTx1 is carried out by incubating increasing concentrations of the iodinated peptide in the presence of 20 μg of membranes containing the alpha1a adrenergic receptor, for 20 h, and then measuring the radioactivity as above.

alpha1a receptor = molecular target: T2, alpha1a receptor (Homo sapiens, UniProt P35348); test: displacement of 3H-prazosin binding to the alpha1a receptor (yeast membranes)
T2 construct: made in house; host or cells: Pichia pastoris (membranes)
T2 sequence (P35348 1-466): T1 sequence (P35348 1-466)

beta1 receptor = molecular target: T3, beta1 receptor (Homo sapiens, UniProt P08588); test: displacement of 3H-CGP12177 binding to the beta1 receptor (yeast membranes)
T3 construct: made in house; host or cells: Pichia pastoris (membranes)
T3 sequence (P08588 whole entry): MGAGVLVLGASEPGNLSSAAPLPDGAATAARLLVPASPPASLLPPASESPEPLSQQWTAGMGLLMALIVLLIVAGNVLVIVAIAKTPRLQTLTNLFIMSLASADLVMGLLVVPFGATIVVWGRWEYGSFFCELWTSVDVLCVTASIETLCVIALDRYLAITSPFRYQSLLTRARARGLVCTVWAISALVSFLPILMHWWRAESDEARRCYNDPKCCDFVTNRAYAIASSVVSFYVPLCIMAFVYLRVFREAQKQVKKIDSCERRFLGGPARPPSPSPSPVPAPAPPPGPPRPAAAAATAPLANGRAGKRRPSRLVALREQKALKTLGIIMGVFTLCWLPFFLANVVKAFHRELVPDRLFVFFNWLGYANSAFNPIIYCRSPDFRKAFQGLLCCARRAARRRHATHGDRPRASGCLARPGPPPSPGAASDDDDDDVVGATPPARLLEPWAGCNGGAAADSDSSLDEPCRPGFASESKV

alpha1d receptor = molecular target: T4, alpha1d receptor (Homo sapiens, UniProt P25100); test: displacement of 3H-prazosin binding to the alpha1d receptor (yeast membranes)
T4 construct: made in house; host or cells: Pichia pastoris (membranes)
T4 sequence (P25100 1-572): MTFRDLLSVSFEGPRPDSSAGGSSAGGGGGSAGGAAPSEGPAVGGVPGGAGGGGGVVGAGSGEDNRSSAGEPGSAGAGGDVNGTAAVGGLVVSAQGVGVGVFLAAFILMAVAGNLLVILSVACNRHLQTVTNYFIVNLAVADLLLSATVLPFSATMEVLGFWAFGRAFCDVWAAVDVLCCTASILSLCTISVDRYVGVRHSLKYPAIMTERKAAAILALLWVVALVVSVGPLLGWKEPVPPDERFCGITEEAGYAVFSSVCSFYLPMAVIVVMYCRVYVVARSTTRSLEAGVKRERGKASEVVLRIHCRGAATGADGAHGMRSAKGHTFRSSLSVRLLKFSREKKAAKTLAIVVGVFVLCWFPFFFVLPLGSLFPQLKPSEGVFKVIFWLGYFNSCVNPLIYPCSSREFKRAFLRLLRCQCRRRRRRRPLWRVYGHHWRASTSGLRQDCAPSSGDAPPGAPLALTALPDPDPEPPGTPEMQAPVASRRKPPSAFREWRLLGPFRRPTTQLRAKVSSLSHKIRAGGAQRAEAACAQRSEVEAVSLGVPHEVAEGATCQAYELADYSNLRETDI

α2a adrenergic receptor = molecular target: T5, α2a adrenergic receptor (Homo sapiens, UniProt P08913); test: displacement of 3H-rauwolscine binding to the alpha2a subtype (yeast membranes)
T5 construct: made in house; host or cells: Pichia pastoris (membranes)
T5 sequence (P08913 1-465): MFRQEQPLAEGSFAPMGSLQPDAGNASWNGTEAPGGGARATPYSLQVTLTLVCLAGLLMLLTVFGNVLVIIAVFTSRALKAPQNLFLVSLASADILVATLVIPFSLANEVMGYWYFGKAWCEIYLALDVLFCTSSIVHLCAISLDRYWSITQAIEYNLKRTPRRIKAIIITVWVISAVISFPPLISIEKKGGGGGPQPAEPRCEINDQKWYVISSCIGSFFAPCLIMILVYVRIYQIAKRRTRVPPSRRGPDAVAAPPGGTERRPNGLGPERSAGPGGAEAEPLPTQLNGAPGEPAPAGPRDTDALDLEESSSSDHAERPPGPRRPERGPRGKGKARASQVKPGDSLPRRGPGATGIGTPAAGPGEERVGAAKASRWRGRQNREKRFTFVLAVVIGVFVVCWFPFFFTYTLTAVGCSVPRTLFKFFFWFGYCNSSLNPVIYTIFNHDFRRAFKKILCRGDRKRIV

alpha1b receptor = molecular target: T6, alpha1b receptor (Homo sapiens, UniProt P35368); test: displacement of 3H-prazosin binding to the alpha1b receptor (yeast membranes)
T6 construct: made in house; host or cells: Pichia pastoris (membranes)
T6 sequence (P35368 1-520): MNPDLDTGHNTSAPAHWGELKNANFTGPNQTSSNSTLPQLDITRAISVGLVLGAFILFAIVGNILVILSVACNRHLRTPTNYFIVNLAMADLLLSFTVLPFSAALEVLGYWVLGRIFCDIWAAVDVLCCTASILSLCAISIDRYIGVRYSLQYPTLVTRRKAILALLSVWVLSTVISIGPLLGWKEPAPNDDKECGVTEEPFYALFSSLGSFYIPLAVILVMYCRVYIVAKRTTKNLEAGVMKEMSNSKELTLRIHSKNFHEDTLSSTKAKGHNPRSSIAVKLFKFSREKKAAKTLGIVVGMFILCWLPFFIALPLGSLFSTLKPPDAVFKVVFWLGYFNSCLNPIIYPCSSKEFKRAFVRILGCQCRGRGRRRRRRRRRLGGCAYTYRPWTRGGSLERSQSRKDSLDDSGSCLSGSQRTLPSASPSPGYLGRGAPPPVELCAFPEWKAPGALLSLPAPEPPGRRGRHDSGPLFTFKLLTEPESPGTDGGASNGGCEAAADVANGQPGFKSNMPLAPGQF

For `CC[C@H](C)[C@@H]1NC(=O)CNC(=O)[C@H](Cc2ccccc2)NC(=O)[C@H]([C@@H](C)CC)NC(=O)[C@H](CO)NC(=O)[C@H](CCCCN)NC(=O)[C@H](CO)NC(=O)[C@H]([C@@H](C)O)NC(=O)[C@H](C(C)C)NC(=O)[C@@H](NC(=O)[C@@H](NC(=O)[C@@H](N)CC(C)C)[C@@H](C)O)CSSC[C@@H]2NC(=O)[C@H](CC(C)C)NC(=O)[C@H](CC(N)=O)NC(=O)[C@H](CCC(N)=O)NC(=O)CNC(=O)[C@H](CC(=O)O)NC(=O)[C@@H]3CCCN3C(=O)[C@H](CSSC[C@@H](C(=O)N[C@@H](C)C(=O)N[C@@H](C)C(=O)N[C@H](C(=O)N[C@H]3CSSC[C@@H](C(=O)N[C@H]4CSSC[C@@H](C(=O)N[C@@H](CC(N)=O)C(=O)N[C@@H](CCC(=O)O)C(=O)O)NC(=O)[C@H](CCCCN)NC(=O)[C@H](CC(=O)O)NC(=O)[C@H]([C@@H](C)O)NC(=O)[C@H](CCCCN)NC4=O)NC(=O)[C@H](Cc4c[nH]cn4)NC(=O)[C@H]([C@@H](C)CC)NC(=O)[C@H](CO)NC(=O)[C@H](CC(=O)O)NC(=O)[C@H](Cc4ccc(O)cc4)NC(=O)[C@H](CC(N)=O)NC(=O)[C@H](CCC(=O)O)NC(=O)[C@@H]4CCCN4C(=O)[C@H]([C@@H](C)CC)NC(=O)[C@@H]4CCCN4C3=O)[C@@H](C)O)NC(=O)CNC(=O)[C@H](CCCNC(=N)N)NC(=O)[C@H]([C@@H](C)O)NC(=O)[C@H](CO)NC(=O)[C@H](CC(=O)O)NC(=O)[C@H](Cc3ccc(O)cc3)NC(=O)[C@H]([C@@H](C)CC)NC(=O)[C@H](CCCCN)NC(=O)[C@@H]3CCCN3C(=O)[C@H](C(C)C)NC(=O)[C@H](C(C)C)NC(=O)[C@H](Cc3ccc(O)cc3)NC(=O)[C@H](Cc3c[nH]cn3)NC(=O)[C@H](CCCNC(=N)N)NC(=O)[C@H](CCCNC(=N)N)NC(=O)[C@H](CCCCN)NC(=O)[C@H](Cc3ccccc3)NC2=O)NC(=O)[C@H](CC(=O)O)NC(=O)[C@H](CCC(=O)O)NC(=O)[C@H]([C@@H](C)O)NC(=O)[C@H]([C@@H](C)O)NC1=O` [AdTx1], the IC50 [1] was 0.5 nM, the Kd [2] was 0.8 ± 0.2 nM and the IC50 (alpha1a receptor) was 1.8 nM. The IC50 (beta1 receptor) was > 50000 nM, the IC50 (alpha1d receptor) was 9900 nM and the IC50 (α2a adrenergic receptor) was > 50000 nM. For the same molecule, the IC50 (alpha1b receptor) was 2300 nM.
